The source of these data is US20120329761A1, “USE OF TIGECYCLINE FOR TREATMENT OF CANCER” (UNIVERSITY HEALTH NETWORK, priority 2010, published 2012).

The conditions of series [1]: cited from earlier work.
The next series relates to primary AML samples. The experiment in a line: Mitochondrial membrane potential, JC-1 dye. The class given is cell-based, human. Conditions: three primary AML samples, 5 μM, times preceding onset of cell death. On the procedure:
(§1) FIG. 4. Tigecycline decreases mitochondrial Cox-1 protein levels in TEX cells. (A) Cells from TEX, OCI-AML2 and two primary AML patients were treated with increasing concentrations (2.5 μM and 5 μM) of tigecycline for 36 and 48 hours of tigecycline. Total proteins were extracted and analyzed by western blotting for Cox-1, Cox-2, Cox-4, grp78, XIAP, actin and tubulin. (B) TEX and AML patient cells were treated with increasing concentrations (2.5 μM and 5 μM) of tigecycline. Cox-1, Cox-2, and Cox-4 mRNA expression relative 18S was determined by quantitative RT-PCR. Data is shown as mean±SD. (C) TEX cells were treated with increasing concentrations of tigecycline and chloramphenicol (CAP) for 72 hours. Complex I, II and IV enzyme activity relative to citrate synthase activity was determined as described in materials and methods. (D) Cells from TEX, primary AML patients, and normal donors were treated with increasing concentrations of tigecycline. Mitochondrial membrane potential (Δψ) was determined by staining cells with JC-1 dye, and flow cytometry analysis (Red/Green ratio). Reactive oxygen species generation (ROS) was determined by staining with h2-DCFDA and Dihydroethidium (DHE).
(§2) To measure mitochondrial membrane potential, cells were treated with tigecycline similarly as described above and then washed twice with PBS and incubated with 5 μM of 5,5′,6,6′-tetrachloro-1,1′,3,3′-tetraethyl benzimidazolylcarbocyanine iodide (JC-1, Sigma-Aldrich) for 20 minutes at 37° C. Each sample was then washed twice with 1 mL PBS and resuspended in 500 μL PBS prior to being read on a BD FACSCalibur. Samples were excited at 488 nm and emission was collected at 526 nm (green) and 595 nm (red). Analysis was conducted using FlowJo software (TreeStar Inc). […]
(§3) During oxidative phosphorylation, the intermediate between oxygen reduction and ATP synthesis is the electrochemical proton gradient, comprised mostly of the mitochondrial membrane potential. […] The effect of tigecycline treatment on the mitochondrial membrane potential as determined by the carbocyanine dye JC-1 was examined. […]

The test system of series [2] is normal hematopoietic cells. Briefly: Mitochondrial membrane potential, JC-1 dye. Conditions: normal hematopoietic cells from two G-CSF mobilized normal donors. Format: cell-based, human. On the procedure: as §1, §2, §3
The subject of a further series is TEX cells. The experiment in a line: Mitochondrial membrane potential, JC-1 dye. The class given is cell-based, human. The settings on record: 5 μM, times preceding onset of cell death. The procedure: as §1, §2, §3
Series [3] has as its system normal hematopoietic cells. The experiment in a line: Methylcellulose colony formation assay. Conditions: 5 μM, normal hematopoietic cells n=5, colonies at 14 days. Format: cell-based, human. On the procedure: (§4) FIG. 2. Tigecycline induces cell death and inhibits clonogenic growth in primary AML cells preferential over normal hematopoietic cells. Mononuclear cells from peripheral blood of leukemia patients (blast count >80%) and normal G-CSF expanded donors was treated with increasing concentrations of tigecycline for 48 hours. Cell viability was measured by Annexin-PI flow cytometry staining. Cell viability is expressed as a mean percentage plus or minus SD (n=3) relative to DMSO-treated cells. Mononuclear cells from primary AML patient samples (A, B) and normal peripheral blood cells (C) were plated in methylcelluose with 5 μM of Tigecycline. (D) Colony forming units were counted at 7 days (AML) and 14 days (Normal) post plating. […]
(§5) To assess clonogenic growth, primary AML cells (1.0×10^5/mL) or granulocyte colony-stimulating factor (G-CSF) mobilized PBSCs (1.0×10^5/mL) were plated in duplicate with increasing concentrations of tigecycline in MethoCult GF H4434 medium (StemCell Technologies, Vancouver, BC) containing 1% methycellulose in IMDM, 30% FCS, 1% bovine serum albumin, 3 U/mL of recombinant human erythropoietin, 10^−4 M of 2-mercaptoethanol, 2 mM of L-glutamine, 50 ng/mL of recombinant human stem cell factor, 10 ng/mL of GM-CSF, and 10 ng/mL of rh IL-3). Seven days (AML samples) or 14 days (normal PBCS) after plating, the number of colonies was counted as previously described^31.

Series [4] relates to primary AML patient samples. Briefly: Methylcellulose colony formation assay. Format: cell-based, human. Conditions: 5 μM, primary AML n=7, colonies at 7 days. The procedure:
as §4, §5

Another series deals with Complex I, II and IV. The experiment in a line: Respiratory chain complex enzyme activity relative to citrate synthase. The class given is cell-based, human. The settings on record: TEX cells, 2.5 μM and 5 μM, 72 hours. On the procedure: as §1
The effect of tigecycline treatment on enzyme activity of the respiratory chain complexes relative to the mitochondrial non-respiratory chain enzyme citrate synthase was examined. TEX leukemia cells were treated with tigecycline for […] and then respiratory chain enzyme relative to citrate synthase activity was analyzed. Equivalent tigecycline concentrations (2.5 μM and 5 μM) decreased enzyme activities of Complexes I and IV relative to citrate synthase, while complex II activity was less affected (FIG. 4C).

Consider `CN(C)c1cc(NC(=O)CNC(C)(C)C)c(O)c2c1C[C@H]1C[C@H]3[C@H](N(C)C)C(O)=C(C(N)=O)C(=O)[C@@]3(O)C(O)=C1C2=O` [tigecycline], for which the toxicity entry in series [1] (50 mg intravenously every 12 hours) is listed as “without significant toxicity”. Further, in series [1] (humans), the “half life in humans” value is 27 h. In series [1] (intravenous doses of 300 mg), the tolerability entry is “well tolerated save for mild nausea”. In the series with primary AML samples, the “mitochondrial membrane potential (JC-1 Red/Green ratio)” value was “decreased mitochondrial membrane potential”. The “loss of mitochondrial membrane potential” value in series [2] is “not seen”. Also, the “mitochondrial membrane potential (JC-1 Red/Green ratio)” value in the series with TEX cells is “decreased mitochondrial membrane potential”. Also, the “reduction of clonogenic growth” value in series [3] came to 34±5%. Moreover, in series [4], the “reduction of clonogenic growth” value is given as 93±4%. Further, in the series with Complex I, II and IV, the “Complex I enzyme activity relative to citrate synthase” value is listed as “decreased”, the “Complex II enzyme activity relative to citrate synthase” value is “less affected” and the “Complex IV enzyme activity relative to citrate synthase” value is on record as “decreased”.
